Data on 13 compounds can be found in patent publication US11306102B2, “1,3-di-substituted ketene compound and application thereof” (BEBETTER MED INC., priority 2017, dated 2022).

One experiment addresses T1, PPARγ (Homo sapiens, UniProt P37231).
T1 construct: expressed in transfected cells; host or cells: Hela cells
T1 sequence (P37231 1-505): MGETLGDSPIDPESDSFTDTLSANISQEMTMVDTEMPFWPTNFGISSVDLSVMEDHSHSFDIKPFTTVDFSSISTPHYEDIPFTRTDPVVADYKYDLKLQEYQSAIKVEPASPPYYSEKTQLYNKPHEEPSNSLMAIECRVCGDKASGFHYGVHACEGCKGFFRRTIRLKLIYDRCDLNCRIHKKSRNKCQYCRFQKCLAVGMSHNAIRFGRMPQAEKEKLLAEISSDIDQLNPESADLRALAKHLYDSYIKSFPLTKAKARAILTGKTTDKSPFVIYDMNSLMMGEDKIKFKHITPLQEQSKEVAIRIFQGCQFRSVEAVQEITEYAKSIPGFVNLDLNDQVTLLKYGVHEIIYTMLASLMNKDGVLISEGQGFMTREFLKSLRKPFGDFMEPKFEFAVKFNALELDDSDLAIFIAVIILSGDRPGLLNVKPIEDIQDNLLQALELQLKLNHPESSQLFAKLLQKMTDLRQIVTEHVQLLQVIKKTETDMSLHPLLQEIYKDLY
As to the kind of experiment: Hela cell/luciferase reporter gene method, PPARγ agonist activity. It counts as cell-based. As to conditions: for EC50: Hela cells, pPPRE3-TK-Luciferase reporter, 24 hrs incubation, read-out: agonistic activity on PPARγ (EC50). As for the experimental part: (§1) This example measures the biological activity of a PPAR agonist using the Hela cell/luciferase reporter gene method.
(§2) The target plasmids PCMV PPARα (Ampicillin+), PCMV PPARγ (Ampicillin+), PCMV PPARδ (Ampicillin+), and pPPRE3-TK-Luciferase (Ampicillin+) were introduced into DH5a competent cells by heat shock treatment, respectively. After being incubated for 1 hour at 37° C. with shaking (180 rpm), the cells were inoculated on LB agar solid medium containing antibiotic Ampicillin, and invertedly cultured at 37° C. for 12-16 hours. Then the monoclonal colony cultured on the medium was taken and inoculated into LB liquid medium for expanded culture. The desired plasmid was extracted from the resulting bacterial solution with a Plasmid Midi Kit (Qiagen; #12143). The plasmid obtained by centrifugation was suspended in TE buffer, and the plasmid concentration was measured and the mixture was stored at −20° C. Hela cells in the exponential phase were seeded in 6-well plates (8-10^5 cells/well), and after 6-8 hours of culture, the cells were transfected using Lipofectamine® 3000 Transfection Reagent (Invitrogen; #L3000015). A plasmid containing a PPAR binding site (peroxisome proliferator response element, PPRE) and a firefly luciferase gene (pPPRE3-TK-Luciferase) and PPAR expression vector were co-transfected into a Hela cell with a total amount of plasmid DNA of 2.5 ug (the mass ratio of each PPAR expression vector is pPPRE:PPARα=6:1, pPPRE:PPARδ=8:1, and pPPRE:PPARγ=2:1) to construct a drug screening cell model for PPAR agonists. PPAR was binded to the ligand and then binded to the peroxisome proliferator response element (PPRE), thereby initiating downstream firefly luciferase expression and its expression intensity was directly proportional to the degree of PPAR activation. The cells after 24 hours transfection were prepared into a cell suspension with a cell concentration of […] by a complete culture solution, and seeded into a 96-well plate with 100 ul per well. After overnight culture, the medium was changed to a medium containing 1% FBS. 10 mM candidate compound stock (1000×) were 4-fold diluted in DMSO for 8 points, then supplemented with medium containing 1% FBS to a final concentration of 50 uM (5×) by addition of 25 μl of 5× compound diluent to each well in different concentration gradients and incubated under 37° C., 5% CO2 incubator for 24 hrs. The 96-well plate was taken out and 30 μl of Bright-Glo™ Luciferase Assay System (Promega #E2620) was added to each well. The Luciferase luminescence intensity was measured by a SynergyH1 full-function microplate detector. The obtained data was used to calculate EC50 using GraphPad Prism 5.0 software to determine the biological activity of the compound.
(§3) The agonistic activity of the compounds synthesized in Examples 1-41 on PPAR is represented by EC50 (see Table 1). EC50 refers to the drug concentration at which the compound has a 50% increase in the agonistic activity of the measured PPAR. The compound numbers in Table 1 correspond to the compound numbers in Examples 1-41.

For the next experiment, the target named is T2, PPARα (Homo sapiens, UniProt Q07869).
T2 construct: expressed in transfected cells; host or cells: Hela cells
T2 sequence (Q07869 1-468): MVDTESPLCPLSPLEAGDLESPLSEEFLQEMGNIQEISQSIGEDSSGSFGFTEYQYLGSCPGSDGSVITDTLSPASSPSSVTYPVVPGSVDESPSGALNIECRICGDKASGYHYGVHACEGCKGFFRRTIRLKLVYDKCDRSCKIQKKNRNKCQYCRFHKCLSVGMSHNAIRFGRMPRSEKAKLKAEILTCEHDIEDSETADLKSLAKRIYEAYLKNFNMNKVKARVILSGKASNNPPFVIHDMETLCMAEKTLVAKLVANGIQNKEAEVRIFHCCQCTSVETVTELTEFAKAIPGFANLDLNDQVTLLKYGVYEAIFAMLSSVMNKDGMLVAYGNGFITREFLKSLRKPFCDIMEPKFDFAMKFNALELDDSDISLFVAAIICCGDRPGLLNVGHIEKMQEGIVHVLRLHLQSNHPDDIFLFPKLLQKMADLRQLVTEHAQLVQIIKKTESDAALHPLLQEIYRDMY
Put plainly: Hela cell/luciferase reporter gene method, PPARα agonist activity. It counts as cell-based. The settings on record: for EC50: Hela cells, pPPRE3-TK-Luciferase reporter, 24 hrs incubation, read-out: agonistic activity on PPAα (EC50); for ratio of PPARγ/PPARα activated (EC50 ratio): under the experimental conditions of the present disclosure. As to the method:
as §1, §2, §3
On the technique in general: A reporter such as luciferase makes a cellular process visible.

As to `CSc1ccc(C(=O)/C=C/c2cc(C)c(OC(C)(C)C(=O)O)c(C)c2)c2occc12` [Compound 5, (E)-2-(2,6-dimethyl-4-(3-(4-(methylthio)benzofuran-7-yl)-3-oxoprop-1-en-1-yl)phenoxy)-2-methylpropanoic acid], the figures for the EC50 at PPARγ and on PPARα were 26.2 nM and 24.4 nM, respectively.
The matching figures for `CCSc1ccc(C(=O)/C=C/c2cc(C)c(OC(C)(C)C(=O)O)c(C)c2)c2occc12` [Compound 6, (E)-2-(4-(3-(4-(ethylthio)benzofuran-7-yl)-3-oxoprop-1-en-1-yl)-2,6-dimethylphenoxy)-2-methylpropanoic acid]: 62.6 nM and 9.6 nM.
The matching figures for `CSc1ccc(C(=O)/C=C/c2cc(C)c(OC(C)(C)C(=O)O)c(C)c2)c2ccoc12` [Compound 27, (E)-2-(2,6-dimethyl-4-(3-(7-(methylthio)benzofuran-4-yl)-3-oxoprop-1-en-1-yl)phenoxy)-2-methylpropanoic acid]: 124 nM and 59.1 nM.
In the same order, the values of `Cc1cc(/C=C/C(=O)c2ccc3c(c2)CCS3)cc(C)c1OC(C)(C)C(=O)O` [Compound 36, (E)-2-(4-(3-(2,3-dihydrobenzo[b]thiophen-5-yl)-3-oxoprop-1-en-1-yl)-2,6-dimethylphenoxy)-2-methylpropanoic acid] are 31.6 nM and 75.1 nM.
On to `COc1ccc2cc(C(=O)/C=C/c3cc(C)c(OC(C)(C)C(=O)O)c(C)c3)oc2c1` [Compound 43, (E)-2-(4-(3-(6-methoxybenzofuran-2-yl)-3-oxoprop-1-en-1-yl)-2,6-dimethylphenoxy)-2-methylpropanoic acid], for which the figures for the EC50 on PPARγ and on PPARα were 116 nM and 39.8 nM, respectively.
For `CSc1ccc2cc(C(=O)/C=C/c3cc(C)c(OC(C)(C)C(=O)O)c(C)c3)oc2c1` [Compound 51, (E)-2-(2,6-dimethyl-4-(3-(6-(methylthio)benzofuran-2-yl)-3-oxoprop-1-en-1-yl)phenoxy)-2-methylpropanoic acid], at PPARγ, the EC50 came out at 35.3 nM and the “activation of PPARγ compared with Elafibranor (in words)” value is “little effect”. Further, at PPARα, the EC50 was found to be 4 nM, the “increased activity for activation of PPARα compared with Elafibranor” value was 7 fold and the “ratio of PPARγ/PPARα activated (EC50 ratio)” value (“ratio of PPARγ/PPARα activated” for short) is 8.83.
Consider `CSc1cccc2oc(C(=O)/C=C/c3cc(C)c(OC(C)(C)C(=O)O)c(C)c3)cc12` [Compound 60, (E)-2-(2,6-dimethyl-4-(3-(4-(methylthio)benzofuran-2-yl)-3-oxoprop-1-en-1-yl)phenoxy)-2-methylpropanoic acid], for which the EC50 on PPARγ was 92.3 nM; on PPARα it was 46.7 nM.
For `CSc1ccc2c(C)c(C(=O)/C=C/c3cc(C)c(OC(C)(C)C(=O)O)c(C)c3)oc2c1` [Compound 62, (E)-2-(2,6-dimethyl-4-(3-(3-methyl-6-(methylthio)benzofuran-2-yl)-3-oxoprop-1-en-1-yl)phenoxy)-2-methylpropanoic acid], on PPARγ, the EC50 is 132 nM and the “activation of PPARγ compared with Elafibranor (in words)” value was “weak activation”. For the same compound, on PPARα, the 50% effective concentration (EC50) amounted to 16.6 nM, the “increased activity for activation of PPARα compared with Elafibranor” value was 1 fold and the “ratio of PPARγ/PPARα activated” value stood at 7.98.
Turning to `CCc1c(C(=O)/C=C/c2cc(C)c(OC(C)(C)C(=O)O)c(C)c2)oc2cc(SC)ccc12` [Compound 63, (E)-2-(4-(3-(3-ethyl-6-(methylthio)benzofuran-2-yl)-3-oxoprop-1-en-1-yl)-2,6-dimethylphenoxy)-2-methylpropanoic acid], the EC50 at PPARγ was determined as 95.5 nM; on PPARα it was 19.2 nM.
In the same order, the values of `CCSc1ccc2c(C)c(C(=O)/C=C/c3cc(C)c(OC(C)(C)C(=O)O)c(C)c3)oc2c1` [Compound 74, (E)-2-(4-(3-(6-(ethylthio)-3-methylbenzofuran-2-yl)-3-oxoprop-1-en-1-yl)-2,6-dimethylphenoxy)-2-methylpropanoic acid] are 29.3 nM and 13.9 nM.
The matching figures for `CSc1ccc2cc(C(=O)/C=C/c3cc(C)c(OC(C)(C)C(=O)O)c(C)c3)sc2c1` [Compound 81, (E)-2-(2,6-dimethyl-4-(3-(6-(methylthio)benzo[b]thiophen-2-yl)-3-oxoprop-1-en-1-yl)phenoxy)-2-methylpropanoic acid]: 94.1 nM and 24.9 nM.
In the case of `CSc1ccc2cc(C(=O)/C=C/c3cc(Cl)c(OC(C)(C)C(=O)O)c(Cl)c3)oc2c1` [Compound 100, (E)-2-(2,6-dichloro-4-(3-(6-(methylthio)benzofuran-2-yl)-3-oxoprop-1-en-1-yl)phenoxy)-2-methylpropanoic acid], on PPARγ, the concentration for a half-maximal effect (EC50) is 475 nM and the “activation of PPARγ compared with Elafibranor (in words)” value is on record as “significantly reduced”. Moreover, on PPARα, the EC50 worked out at 2 nM and the “ratio of PPARγ/PPARα activated” value was 237.55.
The matching figures for `CSc1ccc2c(C)c(C(=O)/C=C/c3cc(Cl)c(OC(C)(C)C(=O)O)c(Cl)c3)oc2c1` [Compound 103, (E)-2-(2,6-dichloro-4-(3-(3-methyl-6-(methylthio)benzofuran-2-yl)-3-oxoprop-1-en-1-yl)phenoxy)-2-methylpropanoic acid]: 788 nM, “significantly reduced”, 8.7 nM and 90.59.

Usually EC50 stands for the midpoint of the concentration-response curve.
